pIC50: −log10 of the molar value. Values after ≈ are worked out from the molar mass of the structure shown. Counter-ions that a name gives are not always drawn.
Assays:
in vitro = conditions: human, wi-38
SK-N-SH = experiment: cells; type: functional, cell-based; conditions: Homo sapiens, 48 h
A549 = experiment: cells; type: functional, cell-based; conditions: Homo sapiens, A549, 48 h
BEL-7404 tumor cell line = experiment: cells; type: functional, cell-based; conditions: Homo sapiens, BEL-7404, 72 h
Description: Antiproliferative activity against human BEL-7404 tumor cell line assessed as inhibition of cell proliferation incubated for 72 hrs by MTT assay

HepG2 = experiment: cells; type: functional, cell-based; conditions: Homo sapiens, HepG2, 48 h
Description: Antiproliferative activity against human HepG2 cells assessed as reduction in cell viability incubated for 48 hrs by MTT spectrophotometric assay

MCF7 = experiment: cells; type: functional; conditions: Homo sapiens, time 48 hrs
Description: Growth inhibition at human MCF7 cells incubated for 48 hrs by SRB assay

P388 = experiment: cells; type: functional, cell-based; conditions: Mus musculus, P388, 48 h
HCC 2998 = experiment: cells; type: functional, cell-based; conditions: Homo sapiens, HCC 2998, 48 h
SW-620 = experiment: cells; type: functional, cell-based; conditions: Homo sapiens, SW-620, 48 h
CCRF-CEM [1] = experiment: cells; type: functional, cell-based; conditions: Homo sapiens, 48 h
HSC-3 = experiment: cells; type: functional; conditions: Homo sapiens, time 48 hrs
Description: Cytotoxicity against human HSC-3 cells assessed as reduction in cell viability incubated for 48 hrs by MTT assay

HSC-2 = experiment: cells; type: functional; conditions: Homo sapiens, time 48 hrs
Description: Cytotoxicity against human HSC-2 cells assessed as reduction in cell viability incubated for 48 hrs by MTT assay

Ca9-22 = experiment: cells; type: functional; conditions: Homo sapiens, time 48 hrs
Description: Cytotoxicity against human Ca9-22 cells assessed as reduction in cell viability incubated for 48 hrs by MTT assay

HSC-4 = experiment: cells; type: functional; conditions: Homo sapiens, time 48 hrs
Description: Cytotoxicity against human HSC-4 cells assessed as reduction in cell viability incubated for 48 hrs by MTT assay

NCI-H3122 = experiment: cells; type: functional, cell-based; conditions: Homo sapiens
Description: Antiproliferative activity against human NCI-H3122 cells assessed as inhibition of cell proliferation

SNB-19 = experiment: cells; type: functional; conditions: Homo sapiens, time 72 hrs, read-out: ED50 (the source's name)
Description: Antiproliferative activity against human SNB-19 cells assessed as cell growth inhibition incubated for 72 hrs by WST-1 assay

PANC-1 = experiment: cells; type: functional; conditions: Homo sapiens, time 48 hrs
Description: Growth inhibition at human PANC-1 cells incubated for 48 hrs by SRB assay

L1210 = experiment: cells; type: functional, cell-based; conditions: Mus musculus, L1210, 48 h
cells [2] = type: functional, cell-based, Molt 4/C8; conditions: Homo sapiens, Molt4/C8, 48 h
MDA-MB-231 = experiment: cells; type: functional; conditions: Homo sapiens, time 48 hrs
Description: Growth inhibition at human MDA-MB-231 cells incubated for 48 hrs by SRB assay

cells [3] = type: functional, cell-based; conditions: Homo sapiens, QBC939, light or radiation study, 24 h
Description: Phototoxicity against human QBC939 cells assessed as inhibition of cell growth incubated for 24 hrs followed by irradiated with 54 J/cm^2 of light dose and measured after 24 hrs by MTT colorimetric assay

KM12 = experiment: cells; type: functional, cell-based; conditions: Homo sapiens, KM12, 48 h
HCT-116 = experiment: cells; type: functional, cell-based; conditions: Homo sapiens, HCT-116, 48 h
CCRF-CEM [4] = experiment: cells; type: functional, cell-based; conditions: Homo sapiens
Description: Antileukemic activity against human CEM cells assessed as inhibition of cell growth incubated for 48 to 72 hrs by MTT assay

K562 [5] = experiment: cells; type: functional, cell-based; conditions: Homo sapiens
Description: Antileukemic activity against human K562 cells assessed as inhibition of cell growth incubated for 48 to 72 hrs by MTT assay

IMR-32 [6] = experiment: cells; type: functional, cell-based; conditions: Homo sapiens, IMR-32, 0.5 h
Description: Cytotoxicity against human IMR-32 cells assessed as inhibition of cell growth incubated for 30 mins by SRB assay

K562 [7] = experiment: cells; type: functional, cell-based; conditions: Homo sapiens; remark: listed apart in the source
Description: Antiproliferative activity against human K562 cells assessed as inhibition of cell proliferation incubated for 48 to 72 hrs by MTT assay

REH = experiment: cells; type: functional, cell-based; conditions: Homo sapiens
Description: Antiproliferative activity against human REH cells assessed as inhibition of cell proliferation incubated for 48 to 72 hrs by MTT assay

SiHa = experiment: cells; type: functional; conditions: Homo sapiens, time 48 hrs
Description: Growth inhibition at human SiHa cells incubated for 48 hrs by SRB assay

animal or person = type: functional, organism-based; conditions: Homo sapiens, QBC939, light or radiation study, 336 h
COLO 205 [8] = experiment: cells; type: functional, cell-based; conditions: Homo sapiens, COLO 205, 0.5 h
Description: Cytotoxicity against human COLO 205 cells assessed as inhibition of cell growth incubated for 30 mins by SRB assay

K562 [9] = experiment: cells; type: functional, cell-based; conditions: Homo sapiens, K562, 48 h
HT-29 = experiment: cells; type: functional, cell-based; conditions: Homo sapiens, HT-29, 48 h
COLO 205 [10] = experiment: cells; type: functional, cell-based; conditions: Homo sapiens, COLO 205, 48 h
HCT-15 = experiment: cells; type: functional, cell-based; conditions: Homo sapiens, HCT-15, 48 h
IMR-32 [11] = experiment: cells; type: functional; conditions: Homo sapiens, time 48 hrs
Description: Growth inhibition at human IMR-32 cells incubated for 48 hrs by SRB assay

COc1cc(/C=C/C(=O)N2CCC=C(Cl)C2=O)cc(OC)c1OC
IC50 at 48 h (in vitro): > 60 µM

COC(=O)C1C(=O)CC(c2ccc(OC)cc2)N(c2ccccc2)C1c1ccc(OC)cc1 (stereo not drawn)
pIC50 (SK-N-SH): 4.96
pIC50 (A549): 4.57

CCOC(=O)C12CC3CC(C1)CC(C(=O)OC1CC(C)(C)N(O)C(C)(C)C1)(C3)C2
pIC50 (BEL-7404 tumor cell line): 5.36

O=C(NC1CCN(Cc2c(F)cccc2F)CC1)c1ccc(Oc2ccccc2)cc1
pIC50 (HepG2): 6.60

O=C(/C=C/c1ccccc1)c1ccc(OCCN2CCCCC2)cc1
GI50 (MCF7): < 10 µM

O=C1/C(=C/c2ccccc2)CN(C(=O)c2ccc(/C=C/C(=O)c3ccc([N+](=O)[O-])cc3)cc2)C/C1=C\c1ccccc1
pIC50 (P388): 6.66

CCN1CC[C@@](O)(c2ccc(Oc3ccccc3)cc2)[C@H](C(=O)c2ccc(Oc3ccccc3)cc2)C1
pIC50 (HCC 2998): 4.92
pIC50 (SW-620): 5.18

O=C(/C=C/c1ccccc1)c1ccc(OCCN2CCCC2)cc1
GI50 (MCF7): < 10 µM

O=C1/C(=C/c2ccccc2)CN(C(=O)c2ccc(/C=C/C(=O)c3ccccc3)cc2)C/C1=C\c1ccccc1
pIC50 (CCRF-CEM [1]): 5.80

COc1cc(/C=C2\Cc3ccccc3C2=O)cc(CN2CCCCC2)c1O
CC50 (HSC-3): 8.4 µM
CC50 (HSC-2): 7.7 µM
CC50 (Ca9-22): 6.5 µM
CC50 (HSC-4): 9.9 µM

COc1cc(C2CCN(C(=O)CO)CC2)ccc1Nc1ncc(C(F)(F)F)c(Nc2ccc(C3CCN(C(=O)CO)CC3)cc2OC)n1
pIC50 (NCI-H3122): 7.34

Cn1cnc2nc(SCCN3CCCCC3)nc(SCCN3CCCCC3)c21
EC50 (SNB-19): 9.18 µg/mL (≈ 21.8 µM)

COc1ccc(CNC(=O)NC2CCN(c3cc(-c4ccc(OC)cc4F)ncn3)CC2)cc1
GI50 (PANC-1): 0.47 µM

O=C1/C(=C/c2ccccc2)CN(C(=O)c2ccc(/C=C/C(=O)c3ccc(O)cc3)cc2)C/C1=C\c1ccccc1
pIC50 (L1210): 5.27
pIC50 (cells [2]): 5.80

COc1ccc(CNC(=O)NC2CCN(c3cc(-c4ccc(Oc5ccccc5)cc4)ncn3)CC2)cc1
GI50 (MDA-MB-231): 0.2 µM

O=C(/C=C/c1ccc(Cl)cc1)c1ccc(OCCN2CCCCC2)cc1
GI50 (MCF7): < 10 µM

COC(C)c1c(C)c2cc3nc(cc4[nH]c(cc5nc(cc1[nH]2)C(C)=C5CCC(=O)O)c(CCC(=O)O)c4C)C(C)=C3C(C)O (stereo not drawn)
pIC50 (cells [3]): 5.02

O=C(/C=C/c1ccc(OCCN2CCCCC2)cc1)c1ccccc1
GI50 (MCF7): < 10 µM

CCN1CC[C@@](O)(c2ccc(Oc3ccc(Cl)cc3)cc2)[C@H](C(=O)c2ccc(Oc3ccc(Cl)cc3)cc2)C1
pIC50 (KM12): 5.59
pIC50 (HCT-116): 5.42

COc1ccc(C(=O)c2ccc(OCC(=O)N3CCC(CCCC4CCN(C(=S)Nc5ccc(Cl)cc5)CC4)CC3)cc2)c(OC)c1
pIC50 (CCRF-CEM [4]): 5.68
pIC50 (K562 [5]): 5.68

CN1OC[C@@H]2CN(c3ccccc3)c3oc4cc(Cl)ccc4c(=O)c3[C@@H]21
pIC50 (IMR-32 [6]): 5.00

O=C(c1ccc(F)c([N+](=O)[O-])c1)N1CCC(CCCC2CCNCC2)CC1
pIC50 (K562 [7]): 5.70
pIC50 (REH): 5.64

COC(=O)c1ccc(NC(=O)NC2CCN(c3cc(-c4ccc(OC)cc4F)ncn3)CC2)cc1
GI50 (SiHa): 0.22 µM

COc1ccc(/C2=C3\C=CC(=N3)/C(c3ccc(OC)cc3)=c3/cc/c([nH]3)=C(\c3ccc(OC)cc3)C3=NC(C(N4CCCCC4)=C3)C(c3ccc(OC)cc3)c3ccc2[nH]3)cc1 (stereo not drawn)
pIC50 (animal or person): 5.26

CN1O[C@@H](c2ccccc2)[C@@H]2CN(c3ccccc3)c3oc4ccccc4c(=O)c3[C@@H]21
pIC50 (COLO 205 [8]): 4.90

O=C(/C=C/c1ccc(OCCN2CCCCC2)cc1)c1ccc(F)cc1
GI50 (MCF7): < 10 µM

c1cc2c(cc1CN1CCC(=NN=C3CCN(Cc4ccc5c(c4)OCO5)CC3)CC1)OCO2
IC50 (K562 [9]): 6.35 µg/mL (≈ 13.7 µM)

COc1ccc(C(=O)c2ccc(OCC(=O)N3CCC(CCCC4CCN(C(=O)Nc5ccc(Cl)cc5)CC4)CC3)cc2)c(OC)c1
pIC50 (CCRF-CEM [4]): 5.70
pIC50 (K562 [5]): 5.80

CCN1CC[C@@](O)(c2ccc(Oc3ccc(C)cc3)cc2)[C@H](C(=O)c2ccc(Oc3ccc(C)cc3)cc2)C1
pIC50 (HT-29): 5.48
pIC50 (COLO 205 [10]): 4.92
pIC50 (HCT-15): 5.40

O=C(Nc1ccccc1)NC1CCN(c2cc(-c3ccc(Oc4ccccc4)cc3)ncn2)CC1
GI50 (IMR-32 [11]): 0.65 µM

COc1ccc(/C=C/C(=O)c2ccc(OCCN3CCCCC3)cc2)cc1
GI50 (MCF7): < 10 µM

COc1ccc(C(=O)c2ccc(OCC(=O)N3CCC(CCCC4CCN(C(=O)Nc5ccc(F)cc5)CC4)CC3)cc2)c(OC)c1
pIC50 (CCRF-CEM [4]): 5.64
pIC50 (K562 [5]): 5.66

COc1cccc2c1C(=O)c1c(O)c3c(c(O)c1C2=O)C[C@@](O)(C(=O)CO)C[C@@H]3O[C@H]1C[C@H](N)[C@H](O)[C@H](C)O1 [DOXORUBICIN HYDROCHLORIDE]
pIC50 (IMR-32 [6]): 5.77

O=c1[nH]cc(F)c(=O)[nH]1 [FLUOROURACIL]
IC50 (K562 [9]): 8.48 µg/mL (≈ 65.2 µM)
pIC50 (COLO 205 [8]): 4.56
